Results on 1 substance are retold here after article PMC555771 (Journal of Biomedicine and Biotechnology, 2004).

Series [1] deals with baboons. Description: IgG levels, body weights and food consumption in baboons. The note with it: during the study (data not shown).
For series [2], the system named is cynomolgus monkeys fed the HCHF diet. In kind it is in vivo, cynomolgus monkey. The note with it: single iv injection 20 mg/kg, at day 7, n=2, P<.05.
For series [3], the system named is CETP. The note with it: ref [10]; cited from earlier work.
Series [4] deals with baboons. The note with it: in vivo.
The test system of series [5] is baboons fed the HCHF diet. In kind it is in vivo, baboon.

As to “truncated apoC-I peptide: 38 amino acid N-terminal fragment of apoC-I peptide based on human sequences, made by solid-phase synthesis; CETP inhibitor (TPDVSSALDKLKEFGNTLEDKARELISRIKQSELSAKM; UniProt P02654 27-64, looked up, fragment)”, in series [1], the body weights result was “no change” and the food consumption result is listed as “no change”. The “maximum decrease in plasma LDL cholesterol levels” value in series [2] came out at 26.5 ± 4.5%. In addition, the “CETP activity in the plasma of low-HDL baboons” value in series [3] is “inhibited CETP activity”. For the same substance, the “plasma IgG levels, change in response to peptide infusion” value in series [4] is given as “did not change significantly”. The “day by which VLDL + LDL cholesterol reached baseline values” in series [5] (intravenous, 10, 15, 20 mg/kg on days 0, 7, 14, n=3) is no more than 25 days. The “maximum increase in HDL cholesterol concentration” value in series [5] (intravenous, 10, 15, 20 mg/kg on days 0, 7, 14, n=3, P<.05) is listed as 20%. In addition, the “change in plasma triglycerides” value in series [5] (intravenous, 10, 15, 20 mg/kg on days 0, 7, 14, until day 19, except at day 4, n=3) is listed as “decreased”. In addition, the “day on which VLDL + LDL cholesterol returned to baseline values” in series [5] (subcutaneous, 10, 15, 20 mg/kg on days 0, 7, 14, n=3) was 28 days. Further, the “maximum decrease in VLDL + LDL cholesterol” value in series [5] (subcutaneous, 10, 15, 20 mg/kg on days 0, 7, 14, on day 19, n=3) stood at 20%. The “maximum increase in HDL cholesterol” value in series [5] (subcutaneous, 10, 15, 20 mg/kg on days 0, 7, 14, on day 23, n=3) worked out at 20%.
